Measured values from patent US20120129897A1, “BIS HETEROARYL INHIBITORS OF PRO-MATRIX METALLOPROTEINASE ACTIVATION” (priority 2010, published 2012).

Columns and labels:
[1] = tested on: female Lewis rats with SCW-induced arthritis; assay: Efficacy in rats with SCW-induced arthritis (ankle thickness, clinical scores); assay type: in vivo, rat; settings: 5, 20, 50 mg/kg BID oral, Day 18-26
From the text: A polyarthritis can be induced in female Lewis rats following i.p. administration of streptococcal cell wall (SCW) […] (PG-PS) (J Exp Med 1977; 146:1585-1602). The model has an acute phase (days 3-7) that is complement and neutrophil-dependent and that resolves. A chronic erosive phase begins at about day ten and is dependent on the development of specific T cell immunity to the PG-GS, which resists digestion and remains present in synovial macrophages for months. Like rheumatoid arthritis, SCW-induced arthritis is reduced by TNF inhibitors, and the dependence of SCW-induced arthritis on macrophages (Rheumatology; 2001; 40:978-987) and the strong association of rheumatoid arthritis severity with synovial-tissue macrophage counts (Ann Rheum Dis; 2005; 64:834-838) makes SCW-arthritis an attractive model for testing potential therapeutic agents. SCW PG-PS 10S (Beckton Dickinson Cat#210866) suspended in saline was vortexed for 30 seconds and sonicated for 3 min with a probe type sonicator prior to injection. […]
To induce arthritis, Female Lewis (LEW/N) rats, 5-6 weeks of age (80-100 g) were injected (i.p.) with SCW PG-PS as described above. […] Each ankle was measured 3 times and averaged, and treatment groups were randomized based on ankle thickness (Table 6). […]

[2] = target: T1, MMP9 mediated gelatinase activity (Rattus norvegicus, UniProt P50282); assay: In situ zymography of gelatinase activity in livers of SCW-induced rats dosed with compound; assay type: in vivo; settings: for Intensity (RLU × 10^6), Mean / Intensity (RLU × 10^6), Rat 1 / Intensity (RLU × 10^6), Rat 2 / Intensity (RLU × 10^6), Rat 3: Day 25-28, liver
T1 construct: from tissue; host or cells: frozen liver sections, female Lewis rats
From the text: In situ zymography provides an alternative approach to assess active MMP9 in tissues (Frederiks). Tissue sections are overlain with fluorescene-conjugated gelatin wherein the conjugation is sufficiently dense to cause the fluorescene to be dye-quenched (DQ). Proteolytic degradation of the DQ-gelatin releases the fluorescene from the quenching effect giving rise to bright green fluorescence at the site of degradation. Because in situ zymography requires the use of frozen sections, calcified tissues are problematic. However, an additional feature of the SCW arthritis model is the development of hepatic granulomatous disease (J Immunol; 1986; 137:2199-2209), and MMP9 reportedly plays a role in macrophage recruitment in the granulomas response to mycobacteria (Infect Immun; 2006; 74:6135-6144). Consequently, granulomatous livers from SCW-treated rats were assessed for active MMP9 by in situ zymography.
As described above, Female Lewis (LEW/N) rats, 5-6 weeks of age (80-100 g) were injected (i.p.) with saline or SCW PG-PS. On day 28, when the granulomatous response was well established, animals were sacrificed and livers were frozen in OCT cryo-sectioning medium and […] sections were cut on a Cryome HM 500 M cryotome and mounted on glass microscope slides. Sections were air dried briefly. MMP9 was confirmed as the source of the gelatinase activity in the liver by treating liver sections with monoclonal antibodies directed against the active site of the two major gelatinases MMP9 and MMP2. Liver sections overlain with 50 μL of 100 μg/mL neutralizing mouse monoclonal antibodies directed against MMP9 (Calbiochem, clone 6-6B), or MMP2 (Millipore, clone CA-4001), or with PBS for 1 hr at room temperature. Tissues were rinsed once with PBS, blotted, and briefly air dried and then overlain with DQ-gelatin (Invitrogen) dissolved to 1 mg/mL in deionized water and then diluted 1:10 in 1% wt/vol low gelling point agarose type VII (Sigma) in PBS. The sections were covered with coverslips, incubated in the dark at room temperature for 20 min, and imaged on an Olympus IX80 inverted microscope fitted with fluorescence optics, using SlideBook™ imaging software (Intelligent Imaging Innovations, Inc., Philadelphia, Pa.; version 5.0). Fluorescence intensity was determined (Table 8). When compared to a saline-treated rat, gelatinase activity was abundantly expressed in granulomatous liver sections obtained from a rat with SCW arthritis.
Next, liver in situ zymography was used to assess the relative presence of active MMP9 in rats dosed with vehicle vs. Compound-α. Female Lewis (LEW/N) rats, 5-6 weeks of age (80-100 g) were injected (i.p.) with saline or SCW PG-PS. Commencing on day 25, randomized groups of rats (n=3 rats/group) received vehicle or 20 or 50 mg/kg Compound-α BID by oral gavage. Vehicle consisted of an aqueous mixture containing 2% (v:v) N-methylpyrrolidone, 5% (v:v) glycerine, and 20% (w:v) captisol. Treatment continued daily through the morning of day 28. Four hrs after the AM dose on day 28, rats were sacrificed and livers assessed for active MMP9 by in situ zymography (Table 9). Gelatinase activity was increased markedly in SCW-induced rats, but activity was reduced by approximately 80% in animals treated with 50 mg/kg Compound-α.

T1 sequence (P50282 108-708): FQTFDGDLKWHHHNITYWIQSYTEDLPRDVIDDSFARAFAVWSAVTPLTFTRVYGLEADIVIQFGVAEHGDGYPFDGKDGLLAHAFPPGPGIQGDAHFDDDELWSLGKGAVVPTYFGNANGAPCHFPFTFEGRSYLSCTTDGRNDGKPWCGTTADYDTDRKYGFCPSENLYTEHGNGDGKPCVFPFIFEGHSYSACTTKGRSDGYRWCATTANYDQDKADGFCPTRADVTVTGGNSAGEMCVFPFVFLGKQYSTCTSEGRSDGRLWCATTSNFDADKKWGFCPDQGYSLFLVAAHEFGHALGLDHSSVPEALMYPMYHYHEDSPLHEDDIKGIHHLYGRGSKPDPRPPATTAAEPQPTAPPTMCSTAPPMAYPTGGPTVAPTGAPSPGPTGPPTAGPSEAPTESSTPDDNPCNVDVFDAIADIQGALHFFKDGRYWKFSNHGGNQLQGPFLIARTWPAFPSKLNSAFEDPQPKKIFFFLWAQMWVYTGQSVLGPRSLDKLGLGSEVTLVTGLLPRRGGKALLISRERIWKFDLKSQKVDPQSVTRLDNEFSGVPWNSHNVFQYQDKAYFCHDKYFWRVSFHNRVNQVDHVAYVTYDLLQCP

Intensity (RLU × 10^6), Mean ([2]; 20 mg/kg BID oral): 55.2 RLU × 10^6
Intensity (RLU × 10^6), Rat 1 ([2]; 20 mg/kg BID oral): 43.0 RLU × 10^6
Intensity (RLU × 10^6), Rat 2 ([2]; 20 mg/kg BID oral): 69.0 RLU × 10^6
Intensity (RLU × 10^6), Rat 3 ([2]; 20 mg/kg BID oral): 53.7 RLU × 10^6
Reduction of liver gelatinase activity ([2]; 50 mg/kg BID oral, Day 25-28): approximately 80%
Intensity (RLU × 10^6), Mean ([2]; 50 mg/kg BID oral): 11.1 RLU × 10^6
Intensity (RLU × 10^6), Rat 1 ([2]; 50 mg/kg BID oral): 3.2 RLU × 10^6
Intensity (RLU × 10^6), Rat 2 ([2]; 50 mg/kg BID oral): 25.6 RLU × 10^6
Intensity (RLU × 10^6), Rat 3 ([2]; 50 mg/kg BID oral): 4.5 RLU × 10^6
SMILES: Cc1nc(C)c(-c2csc(Nc3cc(S(N)(=O)=O)ccc3OC(C)C)n2)s1 [Compound-α, 3-(2′,4′-Dimethyl-[4,5′]bithiazolyl-2-ylamino)-4-isopropoxy-benzenesulfonamide.HBr]
Ankle thickness measurements, effect of treatment [1]: dose-dependent decrease in ankle thickness measurements
Clinical score measurements, effect of treatment [1]: dose dependent decrease in clinical score measurements
